Measurements from patent US8629166B2, “5-cycloalkyl- or 5-heterocyclyl-nicotinamides” (Hoffmann-La Roche Inc., priority 2011, dated 2014).

Experiments:
[1] = system: ABCA1 protein; test: Detection of upregulation of ABCA1 protein in cells (ApoA-I binding, high content image analysis); format: cell-based; conditions: THP-1 macrophage cells; for EC50: ABCA1 protein increasing efficacy; for % increase of ABCA1 at 3 μM: compound at 3 μM, 24 hrs
Description: Detection of Upregulation of ABCA1 Protein in Cells
The ability of compounds of the invention to increase the level of ABCA1 protein is determined in replicate cultures of THP-1 macrophage cells in 96-well microplates. Cells are plated at an initial density of 100,000 cells/well in 100 μl medium and differentiated to adherent macrophages with the addition of PMA (100 nM) for 68 hrs in 10% fetal bovine serum, 3 μl/L of b-mercaptoethanol, RPMI-1640 medium. Then, cells are incubated with RPMI-1640 medium containing 1% FCS, 25 μg/ml acetylated LDL, for 24 hours at 37° C. Following incubation with acetylated LDL, cells are washed twice with 50 μl PBS and incubated with 100 μl of RPMI-1640 medium containing the compound of interest solubilized in DMSO for an additional 24 hrs. The final DMSO concentration in presence of cells is maintained at 0.5%. ApoA-I binding assay using High Content Image Analysis is initiated by replacing with fresh medium, RPMI without Phenol Red, 0.2% BSA containing AlexaFluor®647 labeled ApoA-I for 2 h/37° C./5% CO2. Then, cells are fixed with 4% Formaldehyde in PBS (15 min, RT). Following Nuclei are stained with Hoechst solution (3 μM PBS) and Cytoplasm with Cell Mask Blue (2 μg/ml PBS), 15 min, RT. Finally the stained cells are fixed with a second round of formaldehyde treatment. Fixed stained cells are washed and kept in PBS at 4° C. and can be read immediately until one month after preparation.
The Alexa Fluor 647-labeled Apolipoprotein A-I (20 nM) was prepared as follows: Human recombinant Apolipoprotein A-I (ApoA-I) was exchanged to a buffer of 0.02 M NaHCO3 at pH 8.2 on an NAP desalting column (GE Healthcare) and brought to a concentration to 40 μM (1.13 mg/ml) by adjustment with the same buffer. The ApoA-I was fluorescently labeled by incubation with Alexa Fluor carboxylic acid succimidyl ester (Alexa Fluor 647, Invitrogen A-20006) at a 2:1 molar ratio (Alexa to ApoA-I) for 1 h under shaking at RT. The remaining unconjugated label was removed by buffer exchange to 0.02M NaHCO3 at pH 8.2.
Imaging and data collection were performed on an OPERA confocal microplate imaging reader using a 20× water immersion objective and UV360 or 405 laser to identify the cell nuclei and a 635 laser to identify the fluorescent ApoA-I. Eight fields of view are captured per well. Image capture and analysis was performed with the Acapella software. Background fluorescence detected in control wells without ApoA-I was subtracted.
Using XLfit3 program (ID Business Solutions Ltd. UK), the model 205 for Dose Response One Site is used to calculate the EC50 values. […] Particularly, the compounds of the present invention have EC50 values in a range of 0.1 μM to 3 μm.

[2] = target: T1, human CB2 receptor (Homo sapiens, UniProt P34972); test: CB2 receptor affinity ([3H]-CP-55,940 displacement, HEK cell membranes); format: binding; conditions: displacement of [3H]-CP-55,940 at 10 μM
T1 construct: expressed in transfected cells; host or cells: human embryonic kidney (HEK) cells, Semliki Forest Virus system, membrane preparation
Description: (§1) CB1 and CB2 Receptor Affinity
(§2) The affinity of the compounds of the invention for cannabinoid CB2 receptors was determined using membrane preparations of human embryonic kidney (HEK) cells in which the human CB2 receptor is transiently transfected using a Semliki Forest Virus system in conjunction with [^3H]-CP-55,940 as radioligand. After incubation of freshly prepared cell membrane preparation with the [^3H]-ligand, with or without addition of compounds of the invention, separation of bound and free ligand was performed by filtration over glass fiber filters. Radioactivity on the filter was measured by scintillation counting.
(§3) The ability of the compounds to displace the radioligand [^3H]-CP-55,940 was measured at a concentration of 10 μM and values provided as [% inhibition @ 10 μM] both for the CB1 and CB2 receptor assay, The lower % inhibition is, the lower the likelihood of side effects based on CB1 or CB2 receptor inhibition is.

[3] = target: T2, human CB1 receptor (Homo sapiens, UniProt P21554); test: CB1 receptor affinity ([3H]-CP-55,940 displacement, HEK cell membranes); format: binding; conditions: displacement of [3H]-CP-55,940 at 10 μM
T2 construct: expressed in transfected cells; host or cells: human embryonic kidney (HEK) cells, Semliki Forest Virus system, membrane preparation
Description: as §1
as §2, with “cannabinoid” for “cannabinoid CB2”, “CB1” for “CB2”, “[3H]-CP-55,940” for “[^3H]-CP-55,940”
as §3

T1 sequence (P34972 whole entry): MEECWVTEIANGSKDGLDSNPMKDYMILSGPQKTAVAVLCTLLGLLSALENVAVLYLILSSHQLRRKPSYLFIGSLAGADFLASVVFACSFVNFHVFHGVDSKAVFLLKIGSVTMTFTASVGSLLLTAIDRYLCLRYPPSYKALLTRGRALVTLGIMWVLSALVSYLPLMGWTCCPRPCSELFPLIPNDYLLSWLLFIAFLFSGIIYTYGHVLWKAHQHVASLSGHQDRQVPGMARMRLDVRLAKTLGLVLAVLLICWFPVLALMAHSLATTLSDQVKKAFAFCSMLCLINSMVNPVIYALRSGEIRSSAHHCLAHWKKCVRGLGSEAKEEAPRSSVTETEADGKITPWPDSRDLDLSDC
T2 sequence (P21554 whole entry): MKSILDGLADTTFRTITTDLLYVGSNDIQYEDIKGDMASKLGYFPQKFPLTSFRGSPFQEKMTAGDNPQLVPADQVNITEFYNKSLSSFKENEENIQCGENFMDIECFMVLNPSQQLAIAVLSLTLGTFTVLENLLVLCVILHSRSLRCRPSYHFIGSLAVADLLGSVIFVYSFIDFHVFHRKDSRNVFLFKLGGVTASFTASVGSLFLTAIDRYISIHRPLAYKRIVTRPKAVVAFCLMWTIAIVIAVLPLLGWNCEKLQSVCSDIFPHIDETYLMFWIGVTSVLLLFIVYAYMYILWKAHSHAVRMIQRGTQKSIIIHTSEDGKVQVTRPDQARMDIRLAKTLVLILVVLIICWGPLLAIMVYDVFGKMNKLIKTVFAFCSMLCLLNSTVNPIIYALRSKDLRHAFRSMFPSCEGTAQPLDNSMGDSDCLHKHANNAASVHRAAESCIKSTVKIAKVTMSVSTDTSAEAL

CB2 receptor affinity [% inhibition @ 10 μM] [2] [% inhibition]	CB1 receptor affinity [% inhibition @ 10 μM] [3] [% inhibition]	SMILES	EC50 [1] [µM]	% increase of ABCA1 at 3 μM [1] [% @ 3 μM]
5	33	O=C(Nc1cccnc1)c1cnc(OCC(F)(F)F)c(C2=CCCCC2)c1 [Example 1, 5-cyclohex-1-enyl-N-pyridin-3-yl-6-(2,2,2-trifluoro-ethoxy)-nicotinamide]	0.51	–
3	37	CCN(C(=O)c1cnc(OCC(F)(F)F)c(C2=CCCCC2)c1)C(C)C [Example 2, 5-cyclohex-1-enyl-N-ethyl-N-isopropyl-6-(2,2,2-trifluoro-ethoxy)-nicotinamide]	–	>45
−1	42	O=C(NCc1nc(C(F)(F)F)no1)c1cnc(OCC(F)(F)F)c(C2=CCCCC2)c1 [Example 3, 5-cyclohex-1-enyl-6-(2,2,2-trifluoro-ethoxy)-N-(3-trifluoromethyl-[1,2,4]oxadiazol-5-ylmethyl)-nicotinamide]	–	>45
−2	15	O=C(NCc1nc(C(F)(F)F)no1)c1cnc(OCC(F)(F)F)c(C2=CCOCC2)c1 [Example 5, 5-(3,6-dihydro-2H-pyran-4-yl)-6-(2,2,2-trifluoro-ethoxy)-N-(3-trifluoromethyl-[1,2,4]oxadiazol-5-ylmethyl)-nicotinamide]	2.92	–
2	17	O=C(Nc1cccnc1)c1cnc(OCC(F)(F)F)c(C2CCCCC2)c1 [Example 6, 5-cyclohexyl-N-pyridin-3-yl-6-(2,2,2-trifluoro-ethoxy)-nicotinamide]	3.39	–
3	11	O=C(Nc1cccnc1)c1cnc(OCC(F)(F)F)c(C2=CCCC2)c1 [Example 7, 5-cyclopent-1-enyl-N-pyridin-3-yl-6-(2,2,2-trifluoro-ethoxy)-nicotinamide]	–	>45
13	49	O=C(Nc1cccnc1)c1cnc(OCC(F)(F)F)c(C2CCCC2)c1 [Example 8, 5-cyclopentyl-N-pyridin-3-yl-6-(2,2,2-trifluoro-ethoxy)-nicotinamide]	–	>45
9	7	O=C(Nc1cccnn1)c1cnc(OCC(F)(F)F)c(C2CCCC2)c1 [Example 9, 5-cyclopentyl-N-pyridazin-3-yl-6-(2,2,2-trifluoro-ethoxy)-nicotinamide]	10	–
−9	9	O=C(Nc1ccccn1)c1cnc(OCC(F)(F)F)c(C2CCCC2)c1 [Example 10, 5-cyclopentyl-N-pyridin-2-yl-6-(2,2,2-trifluoro-ethoxy)-nicotinamide]	1.01	–
−3	29	O=C(NCc1nc(C(F)(F)F)no1)c1cnc(OCC(F)(F)F)c(C2CCCC2)c1 [Example 11, 5-cyclopentyl-6-(2,2,2-trifluoro-ethoxy)-N-(3-trifluoromethyl-[1,2,4]oxadiazol-5-ylmethyl)-nicotinamide]	–	>45
12	29	COc1cc(CNC(=O)c2cnc(OCC(F)(F)F)c(C3CCCC3)c2)on1 [Example 12, 5-cyclopentyl-N-(3-methoxy-isoxazol-5-ylmethyl)-6-(2,2,2-trifluoro-ethoxy)-nicotinamide]	–	>45
5	45	COc1cc(CNC(=O)c2cnc(OCC(F)(F)F)c(C3CCCCC3)c2)on1 [Example 13, 5-cyclohexyl-N-(3-methoxy-isoxazol-5-ylmethyl)-6-(2,2,2-trifluoro-ethoxy)-nicotinamide]	–	>45
3	34	Cc1noc(CNC(=O)c2cnc(OCC(F)(F)F)c(C3CCCCC3)c2)n1 [Example 14, 5-cyclohexyl-N-(3-methyl-[1,2,4]oxadiazol-5-ylmethyl)-6-(2,2,2-trifluoro-ethoxy)-nicotinamide]	–	>45
14	49	O=C(NCc1ccn(CC2CC2)n1)c1cnc(OCC(F)(F)F)c(C2CCCCC2)c1 [Example 15, 5-cyclohexyl-N-(1-cyclopropylmethyl-1H-pyrazol-3-ylmethyl)-6-(2,2,2-trifluoro-ethoxy)-nicotinamide]	–	>45
5	25	O=C(NCc1csc(C2CC2)n1)c1cnc(OCC(F)(F)F)c(C2CCCCC2)c1 [Example 16, 5-cyclohexyl-N-(2-cyclopropyl-thiazol-4-ylmethyl)-6-(2,2,2-trifluoro-ethoxy)-nicotinamide]	–	>45
9	25	O=C(NCc1ccn(CC2CC2)n1)c1cnc(OCC(F)(F)F)c(C2CCCC2)c1 [Example 17, 5-cyclopentyl-N-(1-cyclopropylmethyl-1H-pyrazol-3-ylmethyl)-6-(2,2,2-trifluoro-ethoxy)-nicotinamide]	–	>45
14	17	O=C(NCc1csc(C2CC2)n1)c1cnc(OCC(F)(F)F)c(C2CCCC2)c1 [Example 18, 5-cyclopentyl-N-(2-cyclopropyl-thiazol-4-ylmethyl)-6-(2,2,2-trifluoro-ethoxy)-nicotinamide]	–	>45
−11	20	O=C(Nc1cncnc1)c1cnc(OCC(F)(F)F)c(C2CCCCC2)c1 [Example 19, 5-cyclohexyl-N-pyrimidin-5-yl-6-(2,2,2-trifluoro-ethoxy)-nicotinamide]	–	>45

SMILES	CB2 receptor affinity [% inhibition @ 10 μM] [2] [% inhibition]	CB1 receptor affinity [% inhibition @ 10 μM] [3] [% inhibition]	EC50 [1] [µM]	% increase of ABCA1 at 3 μM [1] [% @ 3 μM]
O=C(NCc1nc(C(F)(F)F)no1)c1cnc(OCC(F)(F)F)c(C2CCCCC2)c1 [Example 4, 5-cyclohexyl-6-(2,2,2-trifluoro-ethoxy)-N-(3-trifluoromethyl-[1,2,4]oxadiazol-5-ylmethyl)-nicotinamide]	2	31	0.15	–
